Measurements taken from article PMC5218480 (PLoS ONE, 2017).

Test system: MV-4-11 cells
Assay: Gene expression microarray analysis (Affymetrix PrimeView) and GSEA
Format: cell-based, human
Design: RFU PODN (11730768_x_at) / Fold change /veh PODN (11730768_x_at) / RFU LINC00158 (11744669_a_at) / Fold change /veh LINC00158 (11744669_a_at) / RFU DUSP10 (11751237_a_at) / Fold change /veh DUSP10 (11751237_a_at) / RFU ID3 (11757404_x_at) / Fold change /veh ID3 (11757404_x_at) / RFU PLEKHG5 (11737974_s_at) / Fold change /veh PLEKHG5 (11737974_s_at) / RFU LRRC4B (11730491_at) / Fold change /veh LRRC4B (11730491_at) / RFU GIMAP4 (11747438_a_at) / Fold change /veh GIMAP4 (11747438_a_at) / RFU KRT8 (11758183_x_at) / Fold change /veh KRT8 (11758183_x_at) / RFU CNN1 (11734310_a_at) / Fold change /veh CNN1 (11734310_a_at) / RFU VPS37D (11726825_at) / Fold change /veh VPS37D (11726825_at) / RFU C10orf10 (11716522_x_at) / Fold change /veh C10orf10 (11716522_x_at) / RFU KIR2DL2 /// KIR2DL4 /// KIR2DL5A /// KIR2DL5B /// KIR2DS1 /// KIR2DS2 /// KIR2DS3 /// KIR2DS4 /// KIR3DL3 /// KIR3DL3 /// KIR3DS1 (11738374_at) / Fold change /veh KIR2DL2 /// KIR2DL4 /// KIR2DL5A /// KIR2DL5B /// KIR2DS1 /// KIR2DS2 /// KIR2DS3 /// KIR2DS4 /// KIR3DL3 /// KIR3DL3 /// KIR3DS1 (11738374_at) / RFU C1QL1 (11718748_at) / Fold change /veh C1QL1 (11718748_at) / RFU TMPRSS4 (11747572_a_at) / Fold change /veh TMPRSS4 (11747572_a_at) / RFU HAMP (11756126_x_at) / Fold change /veh HAMP (11756126_x_at) / RFU RNFT2 (11725882_a_at) / Fold change /veh RNFT2 (11725882_a_at) / RFU NR4A2 (11747474_a_at) / Fold change /veh NR4A2 (11747474_a_at) / RFU ABCC12 (11746883_a_at) / Fold change /veh ABCC12 (11746883_a_at) / RFU TMEM136 (11760407_x_at) / Fold change /veh TMEM136 (11760407_x_at) / RFU CLDN22 /// WWC2 (11732394_at) / Fold change /veh CLDN22 /// WWC2 (11732394_at) / RFU HLA-DPB1 (11760878_x_at) / Fold change /veh HLA-DPB1 (11760878_x_at) / RFU SPINT1 (11716480_a_at) / Fold change /veh SPINT1 (11716480_a_at) / RFU GAP43 (11754022_s_at) / Fold change /veh GAP43 (11754022_s_at) / RFU A4GNT (11735810_at) / Fold change /veh A4GNT (11735810_at) / RFU PRB3 (11715151_x_at) / Fold change /veh PRB3 (11715151_x_at) / RFU TUBB4B (11761932_at) / Fold change /veh TUBB4B (11761932_at) / RFU CAPN14 (11732068_a_at) / Fold change /veh CAPN14 (11732068_a_at) / RFU TMCC2 (11721928_a_at) / Fold change /veh TMCC2 (11721928_a_at) / RFU IRGQ (11745062_a_at) / Fold change /veh IRGQ (11745062_a_at) / RFU FAM174B (11720279_a_at) / Fold change /veh FAM174B (11720279_a_at) / RFU TMPRSS4 (11748680_a_at) / Fold change /veh TMPRSS4 (11748680_a_at) / RFU FAM212B (11763350_a_at) / Fold change /veh FAM212B (11763350_a_at) / RFU PLEKHG5 (11743358_a_at) / Fold change /veh PLEKHG5 (11743358_a_at) / RFU ZSCAN30 (11745921_a_at) / Fold change /veh ZSCAN30 (11745921_a_at) / RFU CMKLR1 (11741424_a_at) / Fold change /veh CMKLR1 (11741424_a_at) / RFU LOC101060620 /// MAPK8IP1 (11723275_at) / Fold change /veh LOC101060620 /// MAPK8IP1 (11723275_at) / RFU SPTSSB (11747773_x_at) / Fold change /veh SPTSSB (11747773_x_at) / RFU PRSS12 (11739890_at) / Fold change /veh PRSS12 (11739890_at) / RFU BIN1 (11741810_x_at) / Fold change /veh BIN1 (11741810_x_at) / RFU WNT11 (11732464_a_at) / Fold change /veh WNT11 (11732464_a_at) / RFU C10orf10 (11716521_a_at) / Fold change /veh C10orf10 (11716521_a_at) / RFU C5orf56 (11738089_at) / Fold change /veh C5orf56 (11738089_at) / RFU CYB561 (11721691_x_at) / Fold change /veh CYB561 (11721691_x_at) / RFU ANKRD19P (11752326_a_at) / Fold change /veh ANKRD19P (11752326_a_at) / RFU OR2T12 /// OR2T33 /// OR2T8 (11738714_s_at) / Fold change /veh OR2T12 /// OR2T33 /// OR2T8 (11738714_s_at) / RFU VCAN (11748164_a_at) / Fold change /veh VCAN (11748164_a_at) / RFU JSRP1 (11732532_at) / Fold change /veh JSRP1 (11732532_at) / RFU KRTAP10-11 (11738290_x_at) / Fold change /veh KRTAP10-11 (11738290_x_at) / RFU MYO3A (11730013_a_at) / Fold change /veh MYO3A (11730013_a_at) / RFU EBF3 (11725865_a_at) / Fold change /veh EBF3 (11725865_a_at) / RFU CAMK2N1 (11719241_x_at) / Fold change /veh CAMK2N1 (11719241_x_at) / RFU C5orf56 (11738088_a_at) / Fold change /veh C5orf56 (11738088_a_at) / RFU OLFML3 (11715873_a_at) / Fold change /veh OLFML3 (11715873_a_at) / RFU LOC100653217 /// NTM (11731650_a_at) / Fold change /veh LOC100653217 /// NTM (11731650_a_at) / RFU MAPK11 (11762145_a_at) / Fold change /veh MAPK11 (11762145_a_at) / RFU FIZ1 (11724087_x_at) / Fold change /veh FIZ1 (11724087_x_at) / RFU OASL (11726364_x_at) / Fold change /veh OASL (11726364_x_at) / RFU SOX15 (11748057_x_at) / Fold change /veh SOX15 (11748057_x_at) / RFU CD79A (11719716_a_at) / Fold change /veh CD79A (11719716_a_at) / RFU HIST1H1D (11736915_at) / Fold change /veh HIST1H1D (11736915_at) / RFU CASKIN2 (11723855_a_at) / Fold change /veh CASKIN2 (11723855_a_at) / RFU LOC730098 (11760151_x_at) / Fold change /veh LOC730098 (11760151_x_at) / RFU OR4N2 (11742367_at) / Fold change /veh OR4N2 (11742367_at) / RFU PRRT2 (11749266_a_at) / Fold change /veh PRRT2 (11749266_a_at) / RFU SNX32 (11753110_a_at) / Fold change /veh SNX32 (11753110_a_at) / RFU CDHR5 (11726645_a_at) / Fold change /veh CDHR5 (11726645_a_at) / RFU RCAN1 (11760418_a_at) / Fold change /veh RCAN1 (11760418_a_at) / RFU FAM167A (11723789_a_at) / Fold change /veh FAM167A (11723789_a_at) / RFU FAM26E (11764081_at) / Fold change /veh FAM26E (11764081_at) / RFU ISYNA1 (11749810_s_at) / Fold change /veh ISYNA1 (11749810_s_at) / RFU ACY1 (11761880_at) / Fold change /veh ACY1 (11761880_at) / RFU 11764098_at / Fold change /veh 11764098_at / RFU SAMD14 (11745864_x_at) / Fold change /veh SAMD14 (11745864_x_at) / RFU NPB (11741838_a_at) / Fold change /veh NPB (11741838_a_at) / RFU TMPRSS6 (11731388_a_at) / Fold change /veh TMPRSS6 (11731388_a_at) / RFU KRTAP10-2 (11738614_at) / Fold change /veh KRTAP10-2 (11738614_at) / RFU ARHGAP8 /// PRR5-ARHGAP8 (11727945_x_at) / Fold change /veh ARHGAP8 /// PRR5-ARHGAP8 (11727945_x_at) / RFU KRTAP5-7 /// NADSYN1 (11734609_at) / Fold change /veh KRTAP5-7 /// NADSYN1 (11734609_at) / RFU RASL12 (11751679_a_at) / Fold change /veh RASL12 (11751679_a_at) / RFU CDKN2B (11736163_a_at) / Fold change /veh CDKN2B (11736163_a_at) / RFU PRF1 (11729649_at) / Fold change /veh PRF1 (11729649_at) / RFU, ZNF638 /// ZNF638-IT1 / Fold change vs veh, ZNF638 /// ZNF638-IT1 / RFU, PANK3 / Fold change vs veh, PANK3 / RFU, SH3YL1 / Fold change vs veh, SH3YL1 / RFU, ZEB2 / Fold change vs veh, ZEB2 / RFU, NRIP1 / Fold change vs veh, NRIP1 / RFU, PTTG1IP / Fold change vs veh, PTTG1IP / RFU, CAPN2 / Fold change vs veh, CAPN2 / RFU, MED14 / Fold change vs veh, MED14 / RFU, SNORA58 / Fold change vs veh, SNORA58 / RFU, C1orf63 / Fold change vs veh, C1orf63 / RFU, LRRFIP1 / Fold change vs veh, LRRFIP1 / RFU, NDUFAF7 / Fold change vs veh, NDUFAF7 / RFU, SLC12A2 / Fold change vs veh, SLC12A2 / RFU, IBTK / Fold change vs veh, IBTK / RFU, ESF1 / Fold change vs veh, ESF1 / Fold change vs veh, TMEM50B / RFU, TAOK1 / Fold change vs veh, TAOK1 / RFU, ACBD3 / Fold change vs veh, ACBD3 / RFU, TMA16 / Fold change vs veh, TMA16 / RFU, RWDD3 / Fold change vs veh, RWDD3 / RFU, BCAT1 / Fold change vs veh, BCAT1 / RFU, EDEM3 / Fold change vs veh, EDEM3 / RFU, TMEM33 / Fold change vs veh, TMEM33 / RFU, WDR75 / Fold change vs veh, WDR75 / RFU, AHCTF1 / Fold change vs veh, AHCTF1 / RFU, TFRC / Fold change vs veh, TFRC / RFU, ZDHHC17 / Fold change vs veh, ZDHHC17 / RFU, NOM1 / Fold change vs veh, NOM1 / RFU, ARL8B / Fold change vs veh, ARL8B / RFU, ZBTB11 / Fold change vs veh, ZBTB11 / RFU, TAMM41 / Fold change vs veh, TAMM41 / RFU, KIAA1704 /// LOC100996395 / Fold change vs veh, KIAA1704 /// LOC100996395 / RFU, ING1 / Fold change vs veh, ING1 / RFU, TRMT61B / Fold change vs veh, TRMT61B / RFU, FUBP3 / Fold change vs veh, FUBP3 / RFU, TP53 / Fold change vs veh, TP53 / RFU, TNKS2 / Fold change vs veh, TNKS2 / RFU, ZFP14 / Fold change vs veh, ZFP14 / RFU, ACTR2 / Fold change vs veh, ACTR2 / RFU, PPP3R1 / Fold change vs veh, PPP3R1 / RFU, PIK3R1 / Fold change vs veh, PIK3R1 / RFU, HNRNPA1 / Fold change vs veh, HNRNPA1 / RFU, RNF170 / Fold change vs veh, RNF170 / RFU, ZNF28 / Fold change vs veh, ZNF28 / RFU, RNGTT / Fold change vs veh, RNGTT / RFU, OGT / Fold change vs veh, OGT / RFU, BRD1 / Fold change vs veh, BRD1 / RFU, MARS / Fold change vs veh, MARS / RFU, ZNF655 / Fold change vs veh, ZNF655 / RFU, FAHD1 / Fold change vs veh, FAHD1 / RFU, BDP1 / Fold change vs veh, BDP1 / RFU, LRRCC1 / Fold change vs veh, LRRCC1 / RFU, ARID1A / Fold change vs veh, ARID1A / RFU, ZNF146 / Fold change vs veh, ZNF146 / RFU, ZNF330 / Fold change vs veh, ZNF330 / RFU, GPN3 / Fold change vs veh, GPN3 / RFU, C9orf123 / Fold change vs veh, C9orf123 / RFU, N4BP2L2 / Fold change vs veh, N4BP2L2 / RFU, ARFIP1 / Fold change vs veh, ARFIP1 / RFU, FAM179B / Fold change vs veh, FAM179B / RFU, BCL10 / Fold change vs veh, BCL10 / RFU, UHRF1BP1L / Fold change vs veh, UHRF1BP1L / RFU, BET1 / Fold change vs veh, BET1 / RFU, CNOT2 / Fold change vs veh, CNOT2 / RFU, ZNF268 / Fold change vs veh, ZNF268 / Fold change vs veh, ZNF507 / RFU, DGCR2 / Fold change vs veh, DGCR2 / RFU, WDSUB1 / Fold change vs veh, WDSUB1 / Fold change vs veh, HSP90B1 /// MIR3652 / RFU, ADSS / Fold change vs veh, ADSS / RFU, GK / Fold change vs veh, GK / RFU, ZNF148 / Fold change vs veh, ZNF148 / RFU, TAF9 / Fold change vs veh, TAF9 / RFU, SLC1A5 / Fold change vs veh, SLC1A5 / RFU, SLMO2 / Fold change vs veh, SLMO2 / RFU, ABCC4 / Fold change vs veh, ABCC4 / RFU, LOC101060439 /// RAP1B / Fold change vs veh, LOC101060439 /// RAP1B / RFU, RFX7 / Fold change vs veh, RFX7 / RFU, GTPBP10 / Fold change vs veh, GTPBP10 / RFU, CNEP1R1 / Fold change vs veh, CNEP1R1 / RFU, BIVM-ERCC5 /// ERCC5 / Fold change vs veh, BIVM-ERCC5 /// ERCC5 / RFU, ILF3 / Fold change vs veh, ILF3 / RFU 11762660_at / Fold change /veh 11762660_at / RFU VCAN (11757783_s_at) / Fold change /veh VCAN (11757783_s_at) / RFU DDX43 (11728927_at) / Fold change /veh DDX43 (11728927_at) / RFU KRT8 (11758188_x_at) / Fold change /veh KRT8 (11758188_x_at) / RFU NKD1 (11759106_at) / Fold change /veh NKD1 (11759106_at) / RFU SRD5A1 (11742802_a_at) / Fold change /veh SRD5A1 (11742802_a_at) / RFU TPSAB1 /// TPSB2 (11721975_s_at) / Fold change /veh TPSAB1 /// TPSB2 (11721975_s_at) / RFU GSTM3 (11746129_a_at) / Fold change /veh GSTM3 (11746129_a_at) / RFU IL23R (11737362_x_at) / Fold change /veh IL23R (11737362_x_at) / RFU TMEM51 (11727254_a_at) / Fold change /veh TMEM51 (11727254_a_at) / RFU PIWIL2 (11732686_x_at) / Fold change /veh PIWIL2 (11732686_x_at) / RFU ORM1 (11744905_x_at) / Fold change /veh ORM1 (11744905_x_at) / RFU CCDC152 (11743942_at) / Fold change /veh CCDC152 (11743942_at) / RFU ECM1 (11717891_a_at) / Fold change /veh ECM1 (11717891_a_at) / RFU IL23R (11748794_a_at) / Fold change /veh IL23R (11748794_a_at) / RFU TNFAIP8L3 (11732012_x_at) / Fold change /veh TNFAIP8L3 (11732012_x_at) / RFU MBOAT4 (11741988_at) / Fold change /veh MBOAT4 (11741988_at) / RFU 11764193_at / Fold change /veh 11764193_at / RFU TMEM53 (11763286_at) / Fold change /veh TMEM53 (11763286_at) / RFU MAGEB2 (11727129_at) / Fold change /veh MAGEB2 (11727129_at) / RFU TMEM200A (11744735_a_at) / Fold change /veh TMEM200A (11744735_a_at) / RFU CCDC152 (11751479_a_at) / Fold change /veh CCDC152 (11751479_a_at) / RFU FAM211A (11726209_a_at) / Fold change /veh FAM211A (11726209_a_at) / RFU RGS16 (11746705_a_at) / Fold change /veh RGS16 (11746705_a_at) / RFU VCAN (11755009_s_at) / Fold change /veh VCAN (11755009_s_at) / RFU RHOB (11743442_s_at) / Fold change /veh RHOB (11743442_s_at) / RFU RGS16 (11720943_a_at) / Fold change /veh RGS16 (11720943_a_at) / RFU RGS16 (11720944_at) / Fold change /veh RGS16 (11720944_at) / RFU, VPS4B / Fold change vs veh, VPS4B / RFU, CREB1 / Fold change vs veh, CREB1 / RFU, DNAJC13 / Fold change vs veh, DNAJC13 / RFU, GNAQ / Fold change vs veh, GNAQ / RFU, CDK5R1 / Fold change vs veh, CDK5R1 / RFU, ZRANB3 / Fold change vs veh, ZRANB3 / RFU, CUL4A / Fold change vs veh, CUL4A / RFU, CCNY / Fold change vs veh, CCNY / RFU, UFL1 / Fold change vs veh, UFL1 / RFU, COG3 / Fold change vs veh, COG3 / RFU, DIAPH2 / Fold change vs veh, DIAPH2 / RFU, SKA2 / Fold change vs veh, SKA2 / RFU, AFF3 / Fold change vs veh, AFF3 / RFU, LMF1 / Fold change vs veh, LMF1 / RFU, IPO11 / Fold change vs veh, IPO11 / RFU, DFFB / Fold change vs veh, DFFB / RFU, FOXP1 / Fold change vs veh, FOXP1 / RFU, CARD8 / Fold change vs veh, CARD8 / RFU, STRN3 / Fold change vs veh, STRN3 / RFU, ADK / Fold change vs veh, ADK / RFU, RASSF2 / Fold change vs veh, RASSF2 / RFU, WIPF1 / Fold change vs veh, WIPF1 / RFU, LARP1B / Fold change vs veh, LARP1B / RFU, RASA1 / Fold change vs veh, RASA1 / RFU, RB1 / Fold change vs veh, RB1 / RFU, PPFIA1 / Fold change vs veh, PPFIA1 / RFU, MAT2A / Fold change vs veh, MAT2A / RFU, CCT5 / Fold change vs veh, CCT5 / RFU, WDR92 / Fold change vs veh, WDR92 / RFU, CUX1 / Fold change vs veh, CUX1 / RFU, TTC7A / Fold change vs veh, TTC7A / RFU, TMEM135 / Fold change vs veh, TMEM135 / RFU, DEPTOR / Fold change vs veh, DEPTOR / RFU, CPM / Fold change vs veh, CPM / RFU, DNAJB6 / Fold change vs veh, DNAJB6 / RFU, CACNA2D3 / Fold change vs veh, CACNA2D3 / RFU, DTX4 / Fold change vs veh, DTX4 / RFU, TFCP2 / Fold change vs veh, TFCP2 / RFU, GMCL1 /// GMCL1P1 / Fold change vs veh, GMCL1 /// GMCL1P1 / RFU, AEBP2 / Fold change vs veh, AEBP2 / RFU, SNHG1 /// SNORD22 /// SNORD25 /// SNORD26 /// SNORD27 /// SNORD28 /// SNORD29 /// SNORD31 / Fold change vs veh, SNHG1 /// SNORD22 /// SNORD25 /// SNORD26 /// SNORD27 /// SNORD28 /// SNORD29 /// SNORD31 / Fold change (Aza/veh), C12orf56 (ProbeSet 11735607_a_at) / Fold change (ACY-1035/veh), C12orf56 (ProbeSet 11735607_a_at) / Fold change (Aza/veh), FGFR1OP (ProbeSet 11751329_s_at) / Fold change (ACY-1035/veh), FGFR1OP (ProbeSet 11751329_s_at) / Fold change (Aza/veh), VPS36 (ProbeSet 11739960_a_at) / Fold change (ACY-1035/veh), VPS36 (ProbeSet 11739960_a_at) / RFU SYPL1 (11715823_x_at) / Fold change /veh SYPL1 (11715823_x_at) / RFU IGFBP7 (11715501_s_at) / Fold change /veh IGFBP7 (11715501_s_at) / RFU REEP3 (11722064_at) / Fold change /veh REEP3 (11722064_at) / RFU IGLL1 (11728026_x_at) / Fold change /veh IGLL1 (11728026_x_at): dose or concentration left out as unconfirmed
Conditions: MV-4-11 cells, 48 hours

Nc1ncn([C@@H]2O[C@H](CO)[C@@H](O)[C@H]2O)c(=O)n1 [azacitidine]
RFU CNN1 (11734310_a_at): 25.48 RFU
